In one test the test system is L929. Description: TNF-gamma activity on L929 cells (MTS cytotoxicity/proliferation, morphology). The format is cell-based, mouse. Set-up: key to Proliferation / Differentiation / Adhesion: The numbers of “+” indicate the relative level of activities.; ++: The numbers of “+” indicate the relative level of activities.; +++: The numbers of “+” indicate the relative level of activities.; “−” indicates no detected activity at the concentration range tested. Here is the method:
The adherent target cells were prepared from confluent cultures by trypsinization in PBS, and non-adherent target cells were harvested from stationary cultures and washed once with medium. Target cells were suspended at 3×10^5 cells/ml in medium containing 10% FCS. 0.1 ml aliquots were dispensed into 96-well flat-bottomed microtiter plates containing 0.1 ml serially diluted test samples of cells (WEHI 164 and L929). Incubation was continued for 70 hours. TNF-alpha, TNF-beta and bacterially-produced TNF-gamma were added at a 0.5 μg/ml concentration. The cytotoxicity and proliferation activity was quantified using an MTS assay performed by the addition of 20 μl of MTS and phenazine methosulfate (PMS) solution to each well. After a three hour incubation, the OD at 492 nm was measured by an ELISA plate reader. The OD492 is proportional to the number of viable cells in the wells. The percent of cytotoxicity was calculated as follows: […]. The photographs were taken after 72 hours.
In the graph of FIG. 7B, the assay was performed as described above, however, increasing amounts of TNF-alpha, TNF-beta and TNF-gamma were added to the cultures.

A further test has as its system NF-kappaB in U937 cells. In words: NF-kappaB-SEAP reporter assay. The format is cell-based. Particulars: 72 hr. On the procedure:
[Bovine pulmonary artery endothelial cells were incubated with various concentrations of TNF-gamma for 48 hours. The apoptosis was assessed by nuclear staining with Hoechst 33342 fluorescence dye (10 mg/ml).] […] [U937 cells were transfected using lipofectamine (following manufacturer's instruction) with 0.2 mg of reporter plasmid (NF-kappaB-SEAP). The transfected U937 cells were collected and added to the 96-well plate ([…]/well) with various concentrated of TNF-gamma. After Incubation at 37° C. for 72 hr, the NF-kappaB activity was measured with luminometer at absorbance of 450 nm.]
Consistent with the Northern blot analysis, peripheral blood mononuclear cells (PBMC) and human umbilical vein endothelial cells (HUVEC) express TNF-gamma on the cell surface by immunostaining with antibody to TNF-gamma. […] The cells were incubated for 30 min at 40° C. with antibody (10 mg/ml ) to TNF-gamma to detected expression of TNF-gamma on cell surface, with DR3-Fc or LTbR-Fc (10 mg/ml) for receptor and ligand binding in the binding buffer (HBSS containing 10% BSA, 20 mM HEPES, pH 7.2, 0.02% NaN3). […] Fluorescence was analyzed by a FACscan flow cytometer (Becton Dickinson, Mountain View, Calif.).] […] After incubation at 37° C. for 72 hr, the NF-kB activity was measured with luminometer at absorbance of 450 nm.] […]
Background: A reporter such as luciferase makes a cellular process visible.

“TNF-gamma: new member of the tumor necrosis factor family; the term refers to TNF-gamma-alpha and/or TNF-gamma-beta”: the “morphology change (killed cells)” value with L929 (L929, 0.5 μg/ml, photographs after 72 hours (FIG. 8)) is “induced a morphology change which appeared as dark round cells (indicating killed cells)”. Further, in the test with L929 (L929, mouse fibroblast), the Adhesion result was “−−”, the Differentiation result was “−−” and the Proliferation entry is on record as “−”. The “inhibition of L929 cell growth” value in the test with L929 (MTS assay, increasing amounts added) is recorded as “but not of the fibroblast cell line L929”. Further, the NF-kappaB activation result in the test with NF-kappaB in U937 cells is given as “induces nuclear factor-kappaB (NF-kappaB)”.

The values above are taken from patent US20030129189A1, “Tumor necrosis factor-gamma” (priority 1994, published 2003).
